Measurements published in US20230372498A1, “PLK1 SELECTIVE DEGRADATION INDUCING COMPOUND” (UPPTHERA, priority 2020, published 2023).

Target: T1, PLK1 (Homo sapiens, UniProt P53350)
T1 construct: endogenous in cells; host or cells: HeLa
Test: PLK1 protein degradation in HeLa cells, Western blotting (PLK1/GAPDH ratio)
Assay type: cell-based
Settings: 6 hours compound incubation; for DC50: measured only if the grade of Dmax is A or B; for Dmax: thymidine block and release, 10 points three-fold from 3 μM, PLK1 to GAPDH ratio, read-out: Dmax
Method in brief: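 Thymidine-synchronised HeLa cells (2 mM, 24 h) released 4 h into complete medium, then treated 6 h with compound in 10-point 3-fold dilutions from 3 μM. RIPA lysates (15 μg protein) run on SDS-PAGE; PLK1 Western blot normalised to GAPDH.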

T1 sequence (P53350 whole entry): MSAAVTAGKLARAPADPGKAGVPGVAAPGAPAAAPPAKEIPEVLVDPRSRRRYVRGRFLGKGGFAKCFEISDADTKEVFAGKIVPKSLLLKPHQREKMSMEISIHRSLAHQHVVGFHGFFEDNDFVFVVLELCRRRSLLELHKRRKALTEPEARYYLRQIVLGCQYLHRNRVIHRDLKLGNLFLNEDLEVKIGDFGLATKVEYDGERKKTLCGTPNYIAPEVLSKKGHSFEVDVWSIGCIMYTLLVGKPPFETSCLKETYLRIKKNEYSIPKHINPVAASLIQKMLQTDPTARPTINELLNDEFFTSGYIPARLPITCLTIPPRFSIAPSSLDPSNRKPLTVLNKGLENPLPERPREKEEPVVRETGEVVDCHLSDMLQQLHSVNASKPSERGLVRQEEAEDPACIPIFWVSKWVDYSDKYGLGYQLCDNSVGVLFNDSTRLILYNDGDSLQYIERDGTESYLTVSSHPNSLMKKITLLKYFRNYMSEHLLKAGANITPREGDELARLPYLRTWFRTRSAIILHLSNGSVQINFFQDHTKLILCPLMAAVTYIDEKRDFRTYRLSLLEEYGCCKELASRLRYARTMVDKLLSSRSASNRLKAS

DC50 [µM] | Dmax [%] | Compound
> 0.5 | 60 to 80 | COc1cc(C(=O)N[C@H]2CCN(C(=O)CCC(=O)N3CCN(c4ccc5c(c4)C(=O)N(C4CCC(=O)NC4=O)C5=O)CC3)C2)ccc1Nc1ncc2c(n1)N(C1CCCC1)CC(F)(F)C(=O)N2C (stereo partly drawn) [Compound 145, 4-((9-cyclopentyl-7,7-difluoro-5-methyl-6-oxo-6,7,8,9-tetrahydro-5H-pyrimido[4,5-b][1,4]diazepin-2-yl)amino)-N-((3S)-1-(4-(4-(2-(2,6-dioxopiperidin-3-yl)-1,3-dioxoisoindolin-5-yl)piperazin-1-yl)-4-oxobutanoyl)pyrrolidin-3-yl)-3-methoxybenzamide]
 | < 60 | CN1C(=O)C(F)(F)CN(C2CCCC2)c2nc(Nc3ccc(C(=O)N[C@H]4CCN(C(=O)CCC(=O)N5CCN(c6ccc7c(c6)C(=O)N(C6CCC(=O)NC6=O)C7=O)CC5)C4)cc3)ncc21 (stereo partly drawn) [Compound 146, 4-((9-cyclopentyl-7,7-difluoro-5-methyl-6-oxo-6,7,8,9-tetrahydro-5H-pyrimido[4,5-b][1,4]diazepin-2-yl)amino)-N-((3S)-1-(4-(4-(2-(2,6-dioxopiperidin-3-yl)-1,3-dioxoisoindolin-5-yl)piperazin-1-yl)-4-oxobutanoyl)pyrrolidin-3-yl)benzamide]
≤ 0.5 | 60 to 80 | COc1cc(C(=O)N[C@H]2CCN(C(=O)CCCC(=O)N3CCN(c4ccc5c(c4)C(=O)N(C4CCC(=O)NC4=O)C5=O)CC3)C2)c(F)cc1Nc1ncc2c(n1)N(C1CCCC1)CC(F)(F)C(=O)N2C (stereo partly drawn) [Compound 147, 4-((9-cyclopentyl-7,7-difluoro-5-methyl-6-oxo-6,7,8,9-tetrahydro-5H-pyrimido[4,5-b][1,4]diazepin-2-yl)amino)-N-((3S)-1-(5-(4-(2-(2,6-dioxopiperidin-3-yl)-1,3-dioxoisoindolin-5-yl)piperazin-1-yl)-5-oxopentanoyl)pyrrolidin-3-yl)-2-fluoro-5-methoxybenzamide]
≤ 0.05 | ≥ 80 | COc1cc(C(=O)N[C@H]2CCN(C(=O)CCC(=O)N3CC4(C3)CN(c3cccc5c3C(=O)N(C3CCC(=O)NC3=O)C5=O)C4)C2)c(F)cc1Nc1ncc2c(n1)N(C1CCCC1)CC(F)(F)C(=O)N2C (stereo partly drawn) [Compound 148, 4-((9-cyclopentyl-7,7-difluoro-5-methyl-6-oxo-6,7,8,9-tetrahydro-5H-pyrimido[4,5-b][1,4]diazepin-2-yl)amino)-N-((3S)-1-(4-(6-(2-(2,6-dioxopiperidin-3-yl)-1,3-dioxoisoindolin-4-yl)-2,6-diazaspiro[3.3]heptan-2-yl)-4-oxobutanoyl)pyrrolidin-3-yl)-2-fluoro-5-methoxybenzamide]
≤ 0.5 | 60 to 80 | COc1cc(C(=O)N[C@H]2CCN(C(=O)CCCC(=O)N3CC4(C3)CN(c3cccc5c3C(=O)N(C3CCC(=O)NC3=O)C5=O)C4)C2)c(F)cc1Nc1ncc2c(n1)N(C1CCCC1)CC(F)(F)C(=O)N2C (stereo partly drawn) [Compound 149, 4-((9-cyclopentyl-7,7-difluoro-5-methyl-6-oxo-6,7,8,9-tetrahydro-5H-pyrimido[4,5-b][1,4]diazepin-2-yl)amino)-N-((3S)-1-(5-(6-(2-(2,6-dioxopiperidin-3-yl)-1,3-dioxoisoindolin-4-yl)-2,6-diazaspiro[3.3]heptan-2-yl)-5-oxopentanoyl)pyrrolidin-3-yl)-2-fluoro-5-methoxybenzamide]
≤ 0.05 | ≥ 80 | COc1cc(C(=O)NC2CCN(C(=O)COCCOCCNc3cccc4c3CN(C3CCC(=O)NC3=O)C4=O)C2)c(F)cc1Nc1ncc2c(n1)N(C1CCCC1)CC(F)(F)C(=O)N2C (stereo not drawn) [Compound 150, 4-((9-cyclopentyl-7,7-difluoro-5-methyl-6-oxo-6,7,8,9-tetrahydro-5H-pyrimido[4,5-b][1,4]diazepin-2-yl)amino)-N-(1-(2-(2-(2-((2-(2,6-dioxopiperidin-3-yl)-1-oxoisoindolin-4-yl)amino)ethoxy)ethoxy)acetyl)pyrrolidin-3-yl)-2-fluoro-5-methoxybenzamide]
≤ 0.5 | 60 to 80 | COc1cc(C(=O)NCCOCCNc2cccc3c2C(=O)N(C2CCC(=O)NC2=O)C3=O)c(F)cc1Nc1ncc2c(n1)N(C1CCCC1)CC(F)(F)C(=O)N2C (stereo not drawn) [Compound 151, 4-((9-cyclopentyl-7,7-difluoro-5-methyl-6-oxo-6,7,8,9-tetrahydro-5H-pyrimido[4,5-b][1,4]diazepin-2-yl)amino)-N-(2-(2-((2-(2,6-dioxopiperidin-3-yl)-1,3-dioxoisoindolin-4-yl)amino)ethoxy)ethyl)-2-fluoro-5-methoxybenzamide]
≤ 0.05 | ≥ 80 | COc1cc(C(=O)NCCOCCOCCNc2cccc3c2C(=O)N(C2CCC(=O)NC2=O)C3=O)c(F)cc1Nc1ncc2c(n1)N(C1CCCC1)CC(F)(F)C(=O)N2C (stereo not drawn) [Compound 152, 4-((9-cyclopentyl-7,7-difluoro-5-methyl-6-oxo-6,7,8,9-tetrahydro-5H-pyrimido[4,5-b][1,4]diazepin-2-yl)amino)-N-(2-(2-(2-((2-(2,6-dioxopiperidin-3-yl)-1,3-dioxoisoindolin-4-yl)amino)ethoxy)ethoxy)ethyl)-2-fluoro-5-methoxybenzamide]
≤ 0.05 | ≥ 80 | COc1cc(C(=O)NCCOCCOCCOCCNc2cccc3c2C(=O)N(C2CCC(=O)NC2=O)C3=O)c(F)cc1Nc1ncc2c(n1)N(C1CCCC1)CC(F)(F)C(=O)N2C (stereo not drawn) [Compound 153, 4-((9-cyclopentyl-7,7-difluoro-5-methyl-6-oxo-6,7,8,9-tetrahydro-5H-pyrimido[4,5-b][1,4]diazepin-2-yl)amino)-N-(2-(2-(2-(2-((2-(2,6-dioxopiperidin-3-yl)-1,3-dioxoisoindolin-4-yl)amino)ethoxy)ethoxy)ethoxy)ethyl)-2-fluoro-5-methoxybenzamide]
 | < 60 | COc1cc(C(=O)NCCCCCCCCNc2cccc3c2C(=O)N(C2CCC(=O)NC2=O)C3=O)c(F)cc1Nc1ncc2c(n1)N(C1CCCC1)CC(F)(F)C(=O)N2C (stereo not drawn) [Compound 154, 4-((9-cyclopentyl-7,7-difluoro-5-methyl-6-oxo-6,7,8,9-tetrahydro-5H-pyrimido[4,5-b][1,4]diazepin-2-yl)amino)-N-(8-((2-(2,6-dioxopiperidin-3-yl)-1,3-dioxoisoindolin-4-yl)amino)octyl)-2-fluoro-5-methoxybenzamide]
≤ 0.5 | 60 to 80 | COc1cc(C(=O)NCCOCCCNc2cccc3c2C(=O)N(C2CCC(=O)NC2=O)C3=O)c(F)cc1Nc1ncc2c(n1)N(C1CCCC1)CC(F)(F)C(=O)N2C (stereo not drawn) [Compound 155, 4-((9-cyclopentyl-7,7-difluoro-5-methyl-6-oxo-6,7,8,9-tetrahydro-5H-pyrimido[4,5-b][1,4]diazepin-2-yl)amino)-N-(2-(3-((2-(2,6-dioxopiperidin-3-yl)-1,3-dioxoisoindolin-4-yl)amino)propoxy)ethyl)-2-fluoro-5-methoxybenzamide]
≤ 0.05 | ≥ 80 | COc1cc(C(=O)NCCOCCCOCCNc2cccc3c2C(=O)N(C2CCC(=O)NC2=O)C3=O)c(F)cc1Nc1ncc2c(n1)N(C1CCCC1)CC(F)(F)C(=O)N2C (stereo not drawn) [Compound 156, 4-((9-cyclopentyl-7,7-difluoro-5-methyl-6-oxo-6,7,8,9-tetrahydro-5H-pyrimido[4,5-b][1,4]diazepin-2-yl)amino)-N-(2-(3-(2-((2-(2,6-dioxopiperidin-3-yl)-1,3-dioxoisoindolin-4-yl)amino)ethoxy)propoxy)ethyl)-2-fluoro-5-methoxybenzamide]
≤ 0.05 | ≥ 80 | COc1cc(C(=O)NCCCOCCCOCCNc2cccc3c2C(=O)N(C2CCC(=O)NC2=O)C3=O)c(F)cc1Nc1ncc2c(n1)N(C1CCCC1)CC(F)(F)C(=O)N2C (stereo not drawn) [Compound 157, 4-((9-cyclopentyl-7,7-difluoro-5-methyl-6-oxo-6,7,8,9-tetrahydro-5H-pyrimido[4,5-b][1,4]diazepin-2-yl)amino)-N-(3-(3-(2-((2-(2,6-dioxopiperidin-3-yl)-1,3-dioxoisoindolin-4-yl)amino)ethoxy)propoxy)propyl)-2-fluoro-5-methoxybenzamide]
≤ 0.5 | 60 to 80 | COc1cc(C(=O)NCCCCCCCC(=O)Nc2cccc3c2C(=O)N(C2CCC(=O)NC2=O)C3=O)c(F)cc1Nc1ncc2c(n1)N(C1CCCC1)CC(F)(F)C(=O)N2C (stereo not drawn) [Compound 158, 4-((9-cyclopentyl-7,7-difluoro-5-methyl-6-oxo-6,7,8,9-tetrahydro-5H-pyrimido[4,5-b][1,4]diazepin-2-yl)amino)-N-(8-((2-(2,6-dioxopiperidin-3-yl)-1,3-dioxoisoindolin-4-yl)amino)-8-oxooctyl)-2-fluoro-5-methoxybenzamide]
≤ 0.05 | ≥ 80 | COc1cc(C(=O)NC2CC3(C2)CN(C(=O)CCNc2cccc4c2C(=O)N(C2CCC(=O)NC2=O)C4=O)C3)c(F)cc1Nc1ncc2c(n1)N(C1CCCC1)CC(F)(F)C(=O)N2C (stereo not drawn) [Compound 159, 4-((9-cyclopentyl-7,7-difluoro-5-methyl-6-oxo-6,7,8,9-tetrahydro-5H-pyrimido[4,5-b][1,4]diazepin-2-yl)amino)-N-(2-(3-((2-(2,6-dioxopiperidin-3-yl)-1,3-dioxoisoindolin-4-yl)amino)propanoyl)-2-azaspiro[3.3]heptan-6-yl)-2-fluoro-5-methoxybenzamide]
≤ 0.05 | ≥ 80 | COc1cc(C(=O)NC2CC3(C2)CN(C(=O)CCCNc2cccc4c2C(=O)N(C2CCC(=O)NC2=O)C4=O)C3)c(F)cc1Nc1ncc2c(n1)N(C1CCCC1)CC(F)(F)C(=O)N2C (stereo not drawn) [Compound 160, 4-((9-cyclopentyl-7,7-difluoro-5-methyl-6-oxo-6,7,8,9-tetrahydro-5H-pyrimido[4,5-b][1,4]diazepin-2-yl)amino)-N-(2-(4-((2-(2,6-dioxopiperidin-3-yl)-1,3-dioxoisoindolin-4-yl)amino)butanoyl)-2-azaspiro[3.3]heptan-6-yl)-2-fluoro-5-methoxybenzamide]
